Data on three substances can be found in US5597803A, “Bradykinin peptides with modifications at the N terminus” (Hoechst Aktiengesellschaft, priority 1992, dated 1997).

The target in test [1] is T1, isolated guinea pig pulmonary artery (Cavia porcellus, UniProt O70526).
T1 sequence (O70526 1-372): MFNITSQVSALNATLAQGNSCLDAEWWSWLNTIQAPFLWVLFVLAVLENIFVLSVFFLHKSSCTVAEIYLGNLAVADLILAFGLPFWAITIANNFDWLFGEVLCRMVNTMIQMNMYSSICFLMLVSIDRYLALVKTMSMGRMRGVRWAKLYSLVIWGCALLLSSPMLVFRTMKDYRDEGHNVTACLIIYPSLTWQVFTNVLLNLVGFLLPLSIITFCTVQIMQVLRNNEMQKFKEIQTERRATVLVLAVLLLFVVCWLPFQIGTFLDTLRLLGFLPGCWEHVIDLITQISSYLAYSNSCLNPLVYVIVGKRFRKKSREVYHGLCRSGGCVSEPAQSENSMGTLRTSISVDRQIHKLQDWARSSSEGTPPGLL
Nature of the test: bradykinin-antagonistic action on the isolated guinea pig pulmonary artery (inhibition of bradykinin-induced contraction). In kind it is cell-based. The conditions noted are these: contraction by 2×10^-7 mol/l bradykinin; peptides 5×10^-8 -1×10^-5 mol/l for 10 minutes; calculated from dose-effect plots; unit inferred. The text has this:
The peptides according to the invention have, singly or in combination, a bradykinin-antagonistic action which can be tested in various models (see Handbook of Exp. Pharmacol. Vol. 25, Springer Verlag, 1970, pages 53-55), for example on the isolated rat uterus, on the guinea pig ileum or on the isolated guinea pig pulmonary artery.
(§1) To test the peptides according to the invention on the isolated pulmonary artery, guinea pigs (Dunkin Hartley) weighing 400-450 g are sacrificed by a blow to the back of the neck. The thorax is opened and the pulmonary artery is carefully dissected out. The surrounding tissue is cautiously removed and the pulmonary artery is cut open in a spiral at an angle of 45°. The strip of vessel 2.5 cm long and 3-4 mm wide is fixed in an organ bath which has a capacity of 10 ml and is filled with Ringer solution.
(§2) 95% O2 and 5% CO2 is bubbled through the solution, which is heated to 37° C. The pH is 7.4 and the preload on the strip of vessel is 1.0 g.
(§3) The isometric contraction changes are detected using a lever attachment and an HF modem (position sensor) from Hugo Sachs and are recorded on a potentiometric recorder (BEC, Goerz Metrawatt SE 460).
The experiment is started after equilibration for 1 hour. After the strips of vessel have reached their maximum sensitivity to 2×10^-7 mol/1 bradykinin--bradykinin leads to contraction of the strips of vessel--the peptides are left to act in doses of 5×10^-8 -1×10^-5 mol/l for 10 minutes each and, after renewed addition of bradykinin, the decrease in the effect of bradykinin is compared with the control.

Test [2] relates to carrageenan-induced edema of the rat paw. Nature of the test: carrageenan-induced edema of the rat paw, systemic administration. The test is classed as in vivo. The conditions noted are these: 15 min before carrageenan, male Sprague-Dawley rats, mean and standard deviation. As to the method:
Antiinflammatory effect after systemic administration: carrageenan-induced edema of the rat paw
The test chosen for the acute systemic antiinflammatory effect is the carrageenan-induced edema of the rat paw by the method described by Winter C. A. et al., Proc. Soc. Exp. Biol. (N.Y.), 111, 544 (1962). Male Sprague-Dawley rats weighing about 170 g in groups of 5 animals receive the substances to be tested subcutaneously dissolved in distilled water (1 ml/kg bodyweight). 15 min later, after measurement of the initial volume of the paw, 0.1 ml of 0.5% strength carrageenan solution is injected under ether anesthesia into the left rear paw. The increase in volume of the swelling is measured 3 and 6 h later, Controls receive only the vehicle. The paw volume is reported in ml (mean and standard deviation).
A general note: In the carrageenan paw model, swelling and tenderness develop within hours.

The target of test [3] is T1, isolated guinea pig pulmonary artery. Nature of the test: duration of action (T50) on the isolated pulmonary artery after replacement of the peptide-containing buffer. In kind it is cell-based. Conditions: time until strips again reach maximum sensitivity to 2×10^-7 mol/l bradykinin after washout; measure of duration of action; found by calculation. Here is the method:
as §1, §2, §3
The experiment is started after equilibration for 1 hour. […]
For some selected compounds, the time until the strips of vessel have again reached their maximum sensitivity to 2×10^-7 mol/l bradykinin after replacement of the peptide-containing by a "simple" buffer was also determined in the experimental arrangement described above. […]

Turning to “Fmoc-D-Aoc-Arg -Arg-Pro-Hyp-Gly-Thi-Ser-D-Tic-Oic-Arg-OH [Example 7]”, the IC50 (as a rule, the concentration that inhibits the measured activity by half) in test [1] was 0.022 µM.
The same measure, in the same setting: the same measure for “Fmoc-(4-aminocyclohexylcarbonyl)-D-Arg-Arg-Pro-Hyp-Gly-Thi-Ser-D-Tic-Oic-Arg-OH [Example 15]”: 0.025 µM.
As for “Fmoc-Aoc-D-Arg-Arg-Pro-Hyp-Gly-Thia-Ser-D-Tic-Oic-Arg-OH [Example 2]”, the results for the “Increase in paw volume after 3 h” value in test [2] (0.1 mg/kg subcutaneously) and in test [2] (1.0 mg/kg subcutaneously) were 0.13 ± 0.04 mL and 0.19 ± 0.06 mL, respectively. The “Increase in paw volume after 6 h” value in test [2] (0.1 mg/kg subcutaneously) turned out to be 0.29 ± 0.08 mL; in test [2] (1.0 mg/kg subcutaneously) it was 0.27 ± 0.06 mL. In addition, the IC50 in test [1] is 0.0085 µM. The “T50 (pulmonary artery)” value in test [3] is on record as 253.3 min.
